Assay results published in paper PMC3748964 (Regulatory peptides, 2013).

Target: MT1 melatonin receptor (Oryctolagus cuniculus, UniProt G1U149)
Format: cell-based

Chain of MT1 melatonin receptor (G1U149 1-312): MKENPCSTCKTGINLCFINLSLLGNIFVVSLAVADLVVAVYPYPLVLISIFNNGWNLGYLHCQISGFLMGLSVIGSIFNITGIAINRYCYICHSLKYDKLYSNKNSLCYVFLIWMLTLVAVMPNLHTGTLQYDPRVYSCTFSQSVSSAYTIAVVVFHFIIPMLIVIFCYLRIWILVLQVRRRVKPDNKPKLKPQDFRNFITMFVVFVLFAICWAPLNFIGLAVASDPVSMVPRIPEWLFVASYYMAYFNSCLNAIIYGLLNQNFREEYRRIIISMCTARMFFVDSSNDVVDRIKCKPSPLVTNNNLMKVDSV

Question: Which EC50 does the source give for COc1ccc2[nH]cc(CCNC(C)=O)c2c1 [Melatonin] here?
Answer: 4 ± 1 nM
